{"source": "patent US7888042B2", "about": "“Methods for identifying insulin mimetics” (Ohio University, priority 2005, dated 2011)", "key": {"ob/ob mice [1]": {"tested_on": "ob/ob mice", "assay": "Blood glucose in ob/ob mice, ip injection", "format": "in vivo", "settings": "ip 20 mg/kg on day 0 and day 4, P<0.001", "experimental": "Either 6-8 week old male db/db mice or 8-12 week old male ob/ob mice were treated with aqueous solutions of α-PGG by either oral delivery (˜10 μL, A & B) or ip injection (˜50 μL, C, & D). (n=8-10, mean±SD, one-way ANOVA). α-PGG (●); vehicle (∘). α-PGG (20 mg/kg) was orally delivered without glucose to fasting db/db mice (A *, P<0.02; **, P<0.01; ***, P<0.001) or with glucose (0.4 g/kg body weight) to fasting ob/ob mice (B, glucose tolerance test). α-PGG (20 mg/kg) was ip injected into ob/ob mice on day 0 and day 4 (C). A single ip injection (20 mg/kg) of α-PGG was administered to ob/ob mice (D). Glucose (A, B, C) or insulin (D) was determined from sera or plasma isolated from tail vein blood. Animal studies. Genetically diabetic db/db mice or obese ob/ob mice were purchased from Jackson Lab. Male mice of 2-3 months of age were used. Unless otherwise stated, 10 mice (N=10) were used per group. α-PGG was either orally administered or intraperitoneally (ip) injected in the form of an aqueous solution at 20 mg/kg body weight with a 1-cc sterile plastic syringe. At different times after the α-PGG administration, blood or plasma was collected from the tail vein for measurement of glucose and insulin concentrations using commercial kits. Vehicle (aqueous solution) treated mice were used as controls and were statistically compared with the α-PGG treated mice. […]"}, "ob/ob mice [2]": {"tested_on": "ob/ob mice", "assay": "Glucose tolerance test in ob/ob mice, oral dose", "format": "in vivo", "experimental": "Either 6-8 week old male db/db mice or 8-12 week old male ob/ob mice were treated with aqueous solutions of α-PGG by either oral delivery (˜10 μL, A & B) or ip injection (˜50 μL, C, & D). (n=8-10, mean±SD, one-way ANOVA). α-PGG (●); vehicle (∘). α-PGG (20 mg/kg) was orally delivered without glucose to fasting db/db mice (A *, P<0.02; **, P<0.01; ***, P<0.001) or with glucose (0.4 g/kg body weight) to fasting ob/ob mice (B, glucose tolerance test). α-PGG (20 mg/kg) was ip injected into ob/ob mice on day 0 and day 4 (C). A single ip injection (20 mg/kg) of α-PGG was administered to ob/ob mice (D). Glucose (A, B, C) or insulin (D) was determined from sera or plasma isolated from tail vein blood. Animal studies. Genetically diabetic db/db mice or obese ob/ob mice were purchased from Jackson Lab. Male mice of 2-3 months of age were used. Unless otherwise stated, 10 mice (N=10) were used per group. α-PGG was either orally administered or intraperitoneally (ip) injected in the form of an aqueous solution at 20 mg/kg body weight with a 1-cc sterile plastic syringe. At different times after the α-PGG administration, blood or plasma was collected from the tail vein for measurement of glucose and insulin concentrations using commercial kits. Vehicle (aqueous solution) treated mice were used as controls and were statistically compared with the α-PGG treated mice. All animal studies were conducted in accord with the Ohio University guidelines for the use and care of laboratory animals."}, "3T3-L1 adipocytes": {"tested_on": "3T3-L1 adipocytes", "assay": "Glucose uptake assay in 3T3-L1 adipocytes", "format": "cell-based", "experimental": "Chemical synthesis yields both the α- and β-anomers of PGG. (B) Glucose transport stimulatory activity (13, 14) of PGG was assessed by incubating adipocytes in 6-well plates with insulin or PGG for 15 min followed by the addition of [^3H]-2-deoxy-D-glucose for 10 min before quantifying uptake (13, n=3, mean±SD, Two way-ANOVA, * P<0.05; ** P<0.01). α-PGG (●); β-PGG (□); insulin (∘). (C) Glucose transport induced by insulin in the presence of α-PGG. One […] of insulin was added to adipocytes in the presence of increasing amounts of α-PGG. After induction, radioactive glucose was added, and the glucose taken up by the cells was counted.\nReagents, compound synthesis, and glucose uptake assay. Bovine insulin was purchased from Sigma. PGG, in an approximate 1:1 mixture of α- and β-PGG, was synthesized from glucose in the non-radioactive form as described (22). The identity of the compounds was confirmed by MS and NMR. The compounds were dissolved in double distilled water (ddH2O), filter sterilized, and stored as a 10 mM aqueous stock solution at −20° C. The stock solutions were diluted to final concentrations with sterile ddH2O. Glucose uptake assays in 3T3-L1 adipocytes induced by PGG were performed as described (13)."}, "[3]": {"molecular_target": "T1, IR isolated from CHO-IR cells (Homo sapiens, UniProt P06213)", "T1 construct": "expressed in transfected cells; host or cells: CHO-IR cells (from Dr. Alan Saltiel's lab)", "T1 sequence (P06213 28-758 limits assumed)": "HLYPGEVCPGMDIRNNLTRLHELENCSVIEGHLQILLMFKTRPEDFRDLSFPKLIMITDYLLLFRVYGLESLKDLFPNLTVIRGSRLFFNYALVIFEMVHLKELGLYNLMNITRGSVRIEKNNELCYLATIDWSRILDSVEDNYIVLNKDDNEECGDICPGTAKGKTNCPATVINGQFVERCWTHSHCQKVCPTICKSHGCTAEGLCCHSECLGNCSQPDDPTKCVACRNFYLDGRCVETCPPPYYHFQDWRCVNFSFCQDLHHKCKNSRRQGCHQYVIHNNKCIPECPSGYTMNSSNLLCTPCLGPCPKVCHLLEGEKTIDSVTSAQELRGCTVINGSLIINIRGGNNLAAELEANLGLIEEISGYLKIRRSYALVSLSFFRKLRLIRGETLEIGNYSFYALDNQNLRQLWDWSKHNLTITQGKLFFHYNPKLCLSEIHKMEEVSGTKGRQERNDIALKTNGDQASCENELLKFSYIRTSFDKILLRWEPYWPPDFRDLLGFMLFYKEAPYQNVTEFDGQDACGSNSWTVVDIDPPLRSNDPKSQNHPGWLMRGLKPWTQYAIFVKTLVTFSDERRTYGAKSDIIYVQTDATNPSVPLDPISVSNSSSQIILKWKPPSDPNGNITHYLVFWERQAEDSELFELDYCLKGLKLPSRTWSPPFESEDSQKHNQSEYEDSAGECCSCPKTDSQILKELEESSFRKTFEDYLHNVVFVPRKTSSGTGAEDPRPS", "T1 sequence (P06213 763-1382 partner limits assumed)": "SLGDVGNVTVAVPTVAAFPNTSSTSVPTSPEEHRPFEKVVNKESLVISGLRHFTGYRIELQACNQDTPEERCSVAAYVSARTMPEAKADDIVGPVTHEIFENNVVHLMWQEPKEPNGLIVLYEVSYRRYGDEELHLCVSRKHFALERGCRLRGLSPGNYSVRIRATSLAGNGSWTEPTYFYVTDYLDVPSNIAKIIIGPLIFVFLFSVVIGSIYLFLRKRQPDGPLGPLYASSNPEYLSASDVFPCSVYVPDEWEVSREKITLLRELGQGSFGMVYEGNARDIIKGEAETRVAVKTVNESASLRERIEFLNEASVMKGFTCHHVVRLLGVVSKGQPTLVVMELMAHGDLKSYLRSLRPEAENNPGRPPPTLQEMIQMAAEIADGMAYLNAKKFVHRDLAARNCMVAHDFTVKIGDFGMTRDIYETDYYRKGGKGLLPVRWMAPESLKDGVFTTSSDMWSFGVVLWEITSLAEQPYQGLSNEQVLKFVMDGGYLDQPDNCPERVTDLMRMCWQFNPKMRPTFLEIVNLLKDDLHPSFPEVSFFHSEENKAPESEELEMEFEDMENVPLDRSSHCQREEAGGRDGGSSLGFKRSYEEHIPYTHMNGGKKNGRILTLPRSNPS", "assay": "125I-insulin displacement assay in WGA-coated wells", "format": "binding", "settings": "1 nM 125I-labeled insulin; read-out: IC50 for displacement of IR-bound radioactive insulin", "experimental": "(A) α-PGG binds to IR as measured by a SPR (28). Increasing concentrations of α-PGG was injected into the system to interact with the pure IR attached to the gold surface of the biosensor chip. The binding, represented in arbitrary response units, was automatically plotted against α-PGG concentrations to generate the binding curve. (B) Insulin binding to IR in the absence or presence of α-PGG. Increasing amounts of ^125I-labeled insulin were added to WGA-coated wells containing pre-bound IR isolated from CHO-IR cells in the absence of α-PGG or in the presence of 30 μM or 50 μM of α-PGG. After overnight incubation, removal of excessive ligands, and washing, the bound radioactive insulin was measured. (C) Insulin displacement by α-PGG. Fixed amounts of radioactive insulin (1 nM) were added to each of the WGA-coated wells pre-bound with IR. Increasing amounts of α-PGG were added to the wells to displace the ^125I-labeled insulin. […]\nInsulin receptor binding studies. […] After sensograms of α-PGG-IR binding at different concentrations were recorded, the binding affinity was analyzed using BIAevaluation software. […] The bound ligand was detached (eluted) from the receptor with 2×200 μL 0.2M Glycine pH 2.8, and measured for its radioactivity using a Beckman Coulter LS 6400 Multi-Purpose Scintillation Counter. […] The receptor binding results were analyzed with the software GraphPad Prism."}}}
{"compound": "O=C(OC[C@H]1O[C@H](OC(=O)c2cc(O)c(O)c(O)c2)[C@H](OC(=O)c2cc(O)c(O)c(O)c2)[C@@H](OC(=O)c2cc(O)c(O)c(O)c2)[C@@H]1OC(=O)c1cc(O)c(O)c(O)c1)c1cc(O)c(O)c(O)c1", "note": "[α-PGG, alpha 1,2,3,4,6-penta-O-galloyl-D-Glucopyranose]", "values": [{"measurement": "blood glucose levels", "setting": "ob/ob mice [1]", "value": "significantly and consistently lowered"}, {"measurement": "duration of blood glucose difference", "setting": "ob/ob mice [2]; oral 20 mg/kg", "value": "at least 5 h"}, {"measurement": "largest difference in glucose levels vs control group", "setting": "ob/ob mice [2]; oral 20 mg/kg", "value": "about 20%"}, {"measurement": "glucose tolerance", "setting": "ob/ob mice [2]; single oral dose 20 mg/kg with glucose 0.4 g/kg", "value": "significantly improved"}, {"measurement": "induction of glucose transport", "setting": "3T3-L1 adipocytes; 3T3-L1 adipocytes, [3H]-2-deoxy-D-glucose uptake, 15 min incubation", "value": "induced glucose transport in adipocytes in a dose-dependent manner"}, {"measurement": "glucose transport activity, more active than β-PGG", "setting": "3T3-L1 adipocytes; 15-30 μM concentration range, P<0.05 at 15 μM, P<0.01 at 30 μM", "value": "10-20%"}, {"measurement": "EC50", "setting": "3T3-L1 adipocytes; Mus musculus, 3T3-L1, estimated, printed 13 μM±2 μM, read-out: EC50 for glucose transport activity", "value": 13, "unit": "µM"}, {"measurement": "glucose transport induced by insulin on addition of α-PGG", "setting": "3T3-L1 adipocytes; insulin plus increasing amounts of α-PGG", "value": "reduced the glucose transport activity induced by insulin towards that of α-PGG"}, {"measurement": "IC50", "setting": "[3]", "value": "10 ± 1", "unit": "µM"}]}
